“And” between values parts separate entries of the source, which are not always exact repeats. Equal entries are not always repeated.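 Briefly, cells in 96-well plates were exposed to five compound concentrations for 48 h, and endpoints were estimated by linear interpolation. GI50: concentration for 50% inhibition of growth. TGI: concentration producing complete growth inhibition.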
Tests used:
Experiment in all cases: NCI tumour cell line growth inhibition, 48 h
MDA-N = tested on: MDA-N
DLD-1 colon = tested on: DLD-1 colon
DMS 114 small cell lung = tested on: DMS 114 small cell lung
DMS 273 small cell lung = tested on: DMS 273 small cell lung
KM20L2 colon = tested on: KM20L2 colon
M19-MEL melanoma = tested on: M19-MEL melanoma
RXF-631 renal = tested on: RXF-631 renal
XF 498 CNS = tested on: XF 498 CNS
LXFL 529 NSCLC = tested on: LXFL 529 NSCLC
P388/ADR leukemia = tested on: P388/ADR leukemia
SN12K1 renal = tested on: SN12K1 renal

SMILES	TGI (MDA-N)	TGI (DLD-1 colon)	TGI (DMS 114 small cell lung)	TGI (DMS 273 small cell lung)	TGI (KM20L2 colon)	TGI (M19-MEL melanoma)	TGI (RXF-631 renal)	TGI (XF 498 CNS)	TGI (LXFL 529 NSCLC)	also measured
C/C(=N\NC(=O)CC#N)C(CN1CCCCC1)C(c1ccccc1)c1c(O)c2ccccc2oc1=O (configuration not stated)	> 100 µM									
Cc1cc2c(cc1C)[n+](=O)c(C(=O)/C=C/c1ccc3c(c1)OCO3)c(C)n2[O-]	> 100 µM	> 100 µM	> 84.5 µM	> 100 µM	> 100 µM	> 100 µM	> 91.3 µM	54.9 µM		
O=C1C=CC(=O)C2C1Cc1ccccc1C2c1ccccc1 (configuration not stated)		> 100 µM	42.3 µM	> 100 µM	> 100 µM	> 100 µM			31.1 µM	
O=S(=O)(c1ccccc1)c1nccs1		> 100 µM	> 100 µM	> 100 µM	> 100 µM	> 100 µM		> 100 µM	> 100 µM	
COc1cccc2c1C(=O)c1c(O)c3c(c(O)c1C2=O)C[C@@](O)(C(C)=O)C[C@@H]3OC1CC([N+]([O-])(Cc2ccccc2)Cc2ccccc2)C(O)C(C)O1 (some centres not stated)		3.22 µM	2.64 µM		2.92 µM	2.76 µM	2.93 µM	2.63 µM	2.31 µM	
C#CCN(N=O)C(=O)NCCCCC(NC(=O)OCc1ccccc1)C(=O)OCc1ccccc1 (configuration not stated)		85.2 µM		> 100 µM	> 100 µM	63 µM		74.1 µM	41.4 µM	
CCC[CH2][Sn]([CH2]CCC)([CH2]CCC)[O]C(=O)C(OC(C)=O)c1ccccc1 (configuration not stated)					0.217 µM					GI50 (KM20L2 colon): 0.0801 µM
CC1(C)OC2CC3COC(=O)C3CC2O1 (configuration not stated)		> 100 µM	> 100 µM	> 100 µM	> 100 µM	> 100 µM	> 100 µM		> 100 µM	
Nc1ncn(C2OC(COP(=O)(O)O)C(O)C2O)c(=O)n1 (configuration not stated)	> 100 µM									
O=C1NC(O)c2ccccc2O1 (configuration not stated)	> 100 µM									
CCOP(=O)(OCC)/C(C#N)=C\c1ccsc1		> 100 µM	> 100 µM	> 100 µM	> 100 µM	> 100 µM		> 100 µM	> 100 µM	
O=C(Nc1cc(Cl)ccc1Cl)c1cc2cccc(Br)c2oc1=O		> 100 µM	> 100 µM	> 100 µM	> 100 µM	> 100 µM		72.6 µM		
CN(C)CCNC(=O)c1cccc2nc3ccc4cccnc4c3nc12		8.36 µM	2.12 µM	1.4 µM		1.62 µM	11.8 µM			
CCOc1cc(C(=O)O)c2c(ccc3ccc(OC)c(OC)c32)c1OC	> 100 µM									
CN(C)C(=S)/N=c1\ssc(=S)n1Cc1cccs1	2.85 µM	> 100 µM	5.6 µM		3.57 µM	> 100 µM			> 100 µM	
COc1cc2c(c(O)c1C)C(=O)CC(c1ccccc1)O2 (configuration not stated)		> 100 µM	> 100 µM		82.3 µM	> 100 µM	> 100 µM		> 100 µM	
CC(N)Cc1ccc(Cl)cc1 (configuration not stated)		> 100 µM		> 100 µM	> 100 µM			> 100 µM	> 100 µM	
Cn1cnc([N+](=O)[O-])c1Sc1nnnn1C		29.5 µM	32.2 µM	36.1 µM		29.9 µM		30 µM	24.4 µM	
COC1=CC(=O)C(Br)=CC1=O		> 100 µM	35.5 µM		> 100 µM	32 µM	99.2 µM	31.5 µM	31.2 µM	
COc1ccc2c3c(c(C(=O)O)oc13)CCC2		> 100 µM	> 100 µM	> 100 µM		> 100 µM		> 100 µM	> 100 µM	
CCCN(CCC)CCc1cc(C(C)=O)n(S(=O)(=O)c2ccc(C)cc2)c1		> 100 µM	> 100 µM	> 100 µM		> 100 µM			> 100 µM	
O=C(O)CNc1ccc(Cl)c(Cl)c1	73 µM									
CCN(CC)CCC(=O)OC1C(C)=CC(C)C(=O)CC(C(C)CC2CCC(O)C(OC)C2)OC(=O)C2CCCCN2C(=O)C(=O)[C@@]2(O)OC(CCC2C)CC(OC)\C(C)=C/C=C/C=C/C(C)CC(C)C(=O)C1OC (some centres not stated)	21.7 µM									

SMILES	TGI (MDA-N)	TGI (DLD-1 colon)	TGI (DMS 114 small cell lung)	TGI (DMS 273 small cell lung)	TGI (KM20L2 colon)	TGI (M19-MEL melanoma)	TGI (RXF-631 renal)	TGI (XF 498 CNS)	TGI (LXFL 529 NSCLC)	also measured
O=C1NC(=O)[C@@]2(CC[C@@H](O)C2)c2ccncc21	> 100 µM									
CC(C)(CN1CCOCC1)C(=O)/C=C/c1ccc(/C=C/C(=O)C(C)(C)CN2CCOCC2)cc1		1.19 µM	2.16 µM	1.87 µM	2.89 µM		3.13 µM	2.84 µM	2.59 µM	
Cc1cc(Br)cc(C)c1NC(=O)C(=O)C(C(=O)c1ccncc1)C1OC(=O)c2ccccc21 (configuration not stated)		> 100 µM	> 100 µM	> 100 µM	> 100 µM		> 100 µM	> 100 µM	> 100 µM	
Cc1c(NC(=O)CCl)c(=O)oc2c(C)c3occc(=O)c3cc12	31 µM									
NCCOCn1cc(Cc2cccc(OCc3ccccc3)c2)c(=O)[nH]c1=O		> 100 µM	> 100 µM	> 100 µM	> 100 µM				> 100 µM	
COC1CC(C)C(OC)c2cc(O)cc(c2O)NC(=O)/C(C)=C/C=C\C(C)C(OC(N)=O)/C(C)=C\C(C)C1OC (configuration not stated)	13.3 µM and 6.75 µM	10.5 µM and 11.2 µM	23.2 µM and 5.28 µM	0.905 µM and 6.33 µM		15.2 µM and 10.7 µM			7.64 µM	GI50 (DLD-1 colon): 4.65 µM and 5.28 µM; GI50 (DMS 114 small cell lung): 0.202 µM; GI50 (KM20L2 colon): 0.21 µM; GI50 (M19-MEL melanoma): 0.498 µM; TGI (P388/ADR leukemia): 18.2 µM
O=C(O)C(Br)C(Br)C(=O)O (configuration not stated)	> 100 µM									
S=c1nc(C(c2ccccc2)c2ccccc2)[nH][nH]1		> 100 µM	> 100 µM	> 100 µM	> 100 µM	> 100 µM	> 100 µM	> 100 µM		
O=c1/c(=C/c2c(O)ccc3ccccc23)sc2nc3ccccc3n12		> 100 µM	> 100 µM	> 100 µM	> 100 µM	> 100 µM	> 100 µM	> 100 µM	> 100 µM	
CCNc1cc2oc(=O)cc(C(F)(F)F)c2cc1C	> 100 µM									
O=c1nc(NC(c2ccccc2)(c2ccccc2)c2ccccc2)ccn1CCCl		> 100 µM	37.9 µM		33 µM	40.5 µM	97.4 µM	27.1 µM	26.4 µM	
CSC(=Nc1ccccc1Cl)NC(=O)c1ccc(Br)cc1		> 100 µM	> 100 µM		> 100 µM	> 100 µM		> 100 µM	> 100 µM	
Cc1cn(CCC(N)C(=O)O)c(=O)[nH]c1=O (configuration not stated)	> 100 µM									
COC1(OC)C2(Cl)C(Cl)=C(Cl)C1(Cl)C1c3ccc(C(C)=O)c4cccc(c34)C12 (configuration not stated)	86.6 µM		> 100 µM	20.9 µM	87.4 µM	> 100 µM			> 100 µM	
CC(CN1CC(=O)NC(=O)C1)N1CC(=O)NC(=O)C1 (configuration not stated)	> 750 µM	> 750 µM	409 µM	> 750 µM	> 750 µM	745 µM		> 690 µM		TGI (P388/ADR leukemia): > 750 µM; GI50 (SN12K1 renal): 67.1 µM; TGI (SN12K1 renal): > 750 µM
O=C(O)/C=C/c1ccc[c]([Sb](=[O])([OH])[OH])c1	> 100 µM									GI50 (MDA-N): > 100 µM
CCO/C(CCn1[nH]c(=O)c(Cl)c(Cl)c1=O)=N\NC(=O)C(=O)NN		> 100 µM	> 100 µM	> 100 µM	> 100 µM	> 100 µM	> 100 µM	> 100 µM	> 100 µM	
Cc1cc(C)nc(NS(=O)(=O)c2ccc(Nc3c4ccccc4nc4c(C(=O)Nc5ccc(S(=O)(=O)Nc6cc(C)on6)cc5)ccc(Cl)c34)cc2)n1		33.3 µM			35.4 µM	> 100 µM	64.6 µM	36.2 µM	42.4 µM	
O=C1NC(=O)C(=Cc2c3ccccc3cc3ccccc23)C(=O)N1				> 100 µM	> 100 µM	> 100 µM	> 100 µM	> 100 µM	> 100 µM	
Cc1ccc(NC(=O)C(=O)C(C(=O)c2ccc3ccccc3c2)C2OC(=O)c3ccccc32)c(C)c1 (configuration not stated)		26.5 µM	31.7 µM		56 µM	22.6 µM	20.6 µM	10.7 µM	20.4 µM	
CC(C)=O.O=C([O-])C(F)(F)F.O=C([O-])C(F)(F)F.O=C([O-])C(F)(F)F.O=C([O-])C(F)(F)F.[Rh+2].[Rh+2]		> 100 µM	90.3 µM	> 100 µM	> 100 µM	> 100 µM		> 100 µM	> 100 µM	GI50 (DLD-1 colon): > 100 µM; GI50 (DMS 114 small cell lung): 26.8 µM; GI50 (DMS 273 small cell lung): 94.1 µM; GI50 (KM20L2 colon): > 100 µM; GI50 (LXFL 529 NSCLC): 31 µM; GI50 (M19-MEL melanoma): 47.4 µM; GI50 (XF 498 CNS): 58 µM
COC(NC(N)=O)C(=O)O (configuration not stated)	> 100 µM									
Cc1c(N)nc([C@H](CC(N)=O)NC[C@H](N)C(N)=O)nc1C(=O)N[C@H](C(=O)N[C@H](C)[C@@H](O)CC(=O)N[C@H](C(=O)NC(O[C@@H]1O[C@@H](C)[C@@H](N)[C@@H](O)[C@H]1O)C(O)c1nc(-c2nc(C(=O)NCCCCN)cs2)cs1)[C@@H](C)O)[C@@H](O[C@@H]1O[C@@H](CO)[C@@H](O)[C@H](O)[C@@H]1O[C@H]1O[C@H](CO)[C@@H](O)[C@H](OC(N)=O)[C@@H]1O)c1c[nH]cn1 (some centres not stated)	> 50 µM									

Source: PubChem BioAssay (NCI)
